Test system: adult patients with OSA and ES
Assay: MWT, 12-week placebo-controlled parallel study in OSA
Type: in vivo, human
Details: for MWT mean sleep latency increase from baseline >=5 minutes, subjects / MWT mean sleep latency increase from baseline >=10 minutes, subjects / MWT mean sleep latency increase from baseline >=15 minutes, subjects / MWT mean sleep latency increase from baseline >=20 minutes, subjects / MWT mean sleep latency increase from baseline >=25 minutes, subjects / MWT mean sleep latency increase from baseline >=30 minutes, subjects: mITT
Method: The MWT is an objective test used to measure how alert a subject is during the day. The test consists of four sleep trials with two hours in between the trials. The first trial is performed 1.5-3 hours after the subject's normal wake-up time. Sensors are placed on the head, face, and chin to detect when the subject is asleep and awake during the test. The subject sits quietly in bed with his or her back and head supported by a pillow and is asked to sit still and look straight ahead while trying to stay awake as long as possible. Each trial lasts 40 minutes or until the subject is asleep for 90 seconds. Between trials, the subject stays out of bed and occupies himself or herself to remain awake. Falling asleep in an average of less than eight minutes is considered abnormal. About 40-60% of subjects with normal sleep stay awake for the entire 40 minutes of all four trials.
The study was a 12-week, double-blind, placebo-controlled, parallel design study as described in greater detail in Example 1 (Schweitzer et al., Sleep 40(Abstract Supplement):A237. Abstract 0641 (2017)). Patients were randomized (1:1:2:2:2) to APC 37.5, 75, 150, 300 mg, or placebo for 12 weeks, and were stratified by adherence or non-adherence with primary OSA therapy (adherent definition was use for ≥4 hours per night on >70% of nights). Two patient-reported measures were included as secondary efficacy outcomes to evaluate the effects of APC on functional status and work productivity and activity impairment at baseline and weeks 1, 4, 8, and 12. The Functional Outcomes of Sleep questionnaire short version (FOSQ-10) (Chasens et al., Sleep 32(7):915 (2009)) evaluated the effects of ES on functioning. The Work Productivity and Activity Impairment questionnaire for Specific Health Problems (WPAI:SHP) (Reilly et al., Pharmacoeconomics 4(5):353 (1993); Reilly, Work Productivity and Activity Impairment Questionnaire: Specific Health Problem V2.0 (WPAI: SHP). www.reillyassociates.net/WPAI_SHP) evaluated work productivity impairment among employed patients and overall activity impairment outside of work among all patients for the past 7 days. Four outcomes are available from the WPAI:SHP: Absenteeism (percent work time missed due to health); Presenteeism (percent impairment while working due to health); Percent overall work impairment (calculated from absenteeism and presenteeism); and Percent activity impairment due to health. The FOSQ-10 was evaluated as change over time compared with placebo (least squares (LS) mean); the 4 WPAI outcomes were evaluated at week 12 compared to placebo. Efficacy analyses were based on the modified intent-to-treat population (mITT) and there was no multiplicity adjustment for the FOSQ-10 or WPAI:SHP. Safety and tolerability were assessed based on treatment-emergent adverse events (TEAEs), vital signs, electrocardiogram test, physical exams, Columbia-Suicide Severity Rating Scale, and laboratory tests in the safety population.
This was a 12-week, double-blind, placebo-controlled, parallel-design study. Patients were randomized (1:1:2:2:2) to APC 37.5 mg, 75 mg, 150 mg, or 300 mg, or placebo for 12 weeks, and were stratified by adherence or nonadherence with primary OSA therapy.

Compound: NC(=O)OC[C@H](N)Cc1ccccc1 [JZP-110, (R)-2-amino-3-phenylpropyl carbamate]
- Co-primary MWT endpoint (37.5, 75, 150, 300 mg, week 12): met at all doses
- MWT mean sleep latency increase from baseline >=5 minutes, subjects (Week 1, 37.5 mg): 4 (22.2) n (%)
- MWT mean sleep latency increase from baseline >=10 minutes, subjects (Week 1, 37.5 mg): 2 (11.1) n (%)
- MWT mean sleep latency increase from baseline >=15 minutes, subjects (Week 1, 37.5 mg): 2 (11.1) n (%)
- MWT mean sleep latency increase from baseline >=20 minutes, subjects (Week 1, 37.5 mg): 2 (11.1) n (%)
- MWT mean sleep latency increase from baseline >=25 minutes, subjects (Week 1, 37.5 mg): 0 n (%)
- MWT mean sleep latency increase from baseline >=30 minutes, subjects (Week 1, 37.5 mg): 0 n (%)
- MWT mean sleep latency increase from baseline >=5 minutes, subjects (Week 1, 75 mg): 11 (64.7) n (%)
- MWT mean sleep latency increase from baseline >=10 minutes, subjects (Week 1, 75 mg): 6 (35.3) n (%)
- MWT mean sleep latency increase from baseline >=15 minutes, subjects (Week 1, 75 mg): 4 (23.5) n (%)
- MWT mean sleep latency increase from baseline >=20 minutes, subjects (Week 1, 75 mg): 1 (5.9) n (%)
- MWT mean sleep latency increase from baseline >=25 minutes, subjects (Week 1, 75 mg): 1 (5.9) n (%)
- MWT mean sleep latency increase from baseline >=30 minutes, subjects (Week 1, 75 mg): 0 n (%)
- MWT mean sleep latency increase from baseline >=5 minutes, subjects (Week 1, 150 mg): 27 (81.8) n (%)
- MWT mean sleep latency increase from baseline >=10 minutes, subjects (Week 1, 150 mg): 22 (66.7) n (%)
- MWT mean sleep latency increase from baseline >=15 minutes, subjects (Week 1, 150 mg): 13 (39.4) n (%)
- MWT mean sleep latency increase from baseline >=20 minutes, subjects (Week 1, 150 mg): 9 (27.3) n (%)
- MWT mean sleep latency increase from baseline >=25 minutes, subjects (Week 1, 150 mg): 4 (12.1) n (%)
- MWT mean sleep latency increase from baseline >=30 minutes, subjects (Week 1, 150 mg): 2 (6.1) n (%)
- MWT mean sleep latency increase from baseline >=5 minutes, subjects (Week 1, 300 mg): 28 (75.7) n (%)
- MWT mean sleep latency increase from baseline >=10 minutes, subjects (Week 1, 300 mg): 22 (59.5) n (%)
- MWT mean sleep latency increase from baseline >=15 minutes, subjects (Week 1, 300 mg): 19 (51.4) n (%)
- MWT mean sleep latency increase from baseline >=20 minutes, subjects (Week 1, 300 mg): 14 (37.8) n (%)
- MWT mean sleep latency increase from baseline >=25 minutes, subjects (Week 1, 300 mg): 7 (18.9) n (%)
- MWT mean sleep latency increase from baseline >=30 minutes, subjects (Week 1, 300 mg): 4 (10.8) n (%)
- MWT mean sleep latency increase from baseline >=5 minutes, subjects (Week 1, Combined JZP-110 doses): 70 (66.7) n (%)
- MWT mean sleep latency increase from baseline >=10 minutes, subjects (Week 1, Combined JZP-110 doses): 52 (49.5) n (%)
- MWT mean sleep latency increase from baseline >=15 minutes, subjects (Week 1, Combined JZP-110 doses): 38 (36.2) n (%)
- MWT mean sleep latency increase from baseline >=20 minutes, subjects (Week 1, Combined JZP-110 doses): 26 (24.8) n (%)
- MWT mean sleep latency increase from baseline >=25 minutes, subjects (Week 1, Combined JZP-110 doses): 12 (11.4) n (%)
- MWT mean sleep latency increase from baseline >=30 minutes, subjects (Week 1, Combined JZP-110 doses): 6 (5.7) n (%)
- MWT mean sleep latency increase from baseline >=5 minutes, subjects (Week 4, 37.5 mg): 21 (42.0) n (%)
- MWT mean sleep latency increase from baseline >=10 minutes, subjects (Week 4, 37.5 mg): 16 (32.0) n (%)
- MWT mean sleep latency increase from baseline >=15 minutes, subjects (Week 4, 37.5 mg): 7 (14.0) n (%)
- MWT mean sleep latency increase from baseline >=20 minutes, subjects (Week 4, 37.5 mg): 4 (8.0) n (%)
- MWT mean sleep latency increase from baseline >=25 minutes, subjects (Week 4, 37.5 mg): 0 n (%)
- MWT mean sleep latency increase from baseline >=30 minutes, subjects (Week 4, 37.5 mg): 0 n (%)
- MWT mean sleep latency increase from baseline >=5 minutes, subjects (Week 4, 75 mg): 34 (61.8) n (%)
- MWT mean sleep latency increase from baseline >=10 minutes, subjects (Week 4, 75 mg): 25 (45.5) n (%)
- MWT mean sleep latency increase from baseline >=15 minutes, subjects (Week 4, 75 mg): 11 (20.0) n (%)
- MWT mean sleep latency increase from baseline >=20 minutes, subjects (Week 4, 75 mg): 5 (9.1) n (%)
- MWT mean sleep latency increase from baseline >=25 minutes, subjects (Week 4, 75 mg): 2 (3.6) n (%)
- MWT mean sleep latency increase from baseline >=30 minutes, subjects (Week 4, 75 mg): 1 (1.8) n (%)
- MWT mean sleep latency increase from baseline >=5 minutes, subjects (Week 4, 150 mg): 83 (76.9) n (%)
- MWT mean sleep latency increase from baseline >=10 minutes, subjects (Week 4, 150 mg): 54 (50.0) n (%)
- MWT mean sleep latency increase from baseline >=15 minutes, subjects (Week 4, 150 mg): 40 (37.0) n (%)

— patent publication US11865098B1, “Methods and compositions for treating excessive sleepiness” (Axsome Malta Ltd., priority 2017, dated 2024)
